A word on the EC50: it is the concentration at which the effect is half-maximal. In general, CC50 refers to the concentration at which the toxic effect on the cells reaches its halfway point. High values mean better tolerance by the cells, low ones harm at low concentration.

Consider 38 molecules from ChEMBL document CHEMBL1156829 (Proc Natl Acad Sci U S A, 2008).

Data set [1] concerns Plasmodium falciparum. Put plainly: NOVARTIS: Inhibition of Plasmodium falciparum 3D7 (drug-susceptible) proliferation in erythrocyte-based infection assay. It counts as functional, organism-based. The following applies: Plasmodium falciparum, 3D7.
For data set [2], the system named is Plasmodium falciparum. Put plainly: NOVARTIS: Inhibition of Plasmodium falciparum W2 (drug-resistant) proliferation in erythrocyte-based infection assay. It counts as functional, organism-based. As to conditions: Plasmodium falciparum, W2; read-out: EC50.
The nature of data set [3]: NOVARTIS: Cytotoxicity against human hepatocellular carcinoma cell line (Huh7). In kind it is toxicity, cell-based, Huh-7. The following applies: Huh7 cells (hepatocellular carcinoma cell line).

As for `CC(C)(C)c1ccc(O)c(CNC2CCCCC2)c1`, the EC50 in the data set on Plasmodium falciparum [1] is 0.251 µM; in the data set with Plasmodium falciparum [2] it was 0.0678 µM. The molecule also displayed a CC50 in data set [3] of 60.1 µM.
Turning to `COC1=CC(C)=C[C@@H](C)[C@@H](O)[C@H](C)CC(C)=CC=C[C@H](OC)[C@@H](C(C)C(O)[C@H](C)[C@@]2(O)C[C@@H](O)[C@H](C)[C@@H](C(C)C)O2)OC1=O` (some centres undefined), the EC50 in the data set on Plasmodium falciparum [1] was 1.49 µM; with Plasmodium falciparum [2], 0.0113 µM. This molecule also showed a CC50 in data set [3] of more than 10 µM.
The matching figures for `COc1cccc(CN2CCN(C(c3ccccc3)c3ccccc3)CC2)c1O`: 0.34 µM, 0.0504 µM and 45.2 µM.
The matching figures for `CCN(CC)CCCC(C)N=c1cc(C=Cc2ccc([N+](=O)[O-])cc2)[nH]c2ccc(OC)cc12` (centres undefined): 0.0209 µM, 0.014 µM and 11.7 µM.
The matching figures for `CC(C)c1nc(N2CCN(C(=S)NCc3ccccc3)CC2)c(C#N)c2c1COC(C)(C)C2`: 0.183 µM, 0.112 µM and more than 100 µM.
On to `Cc1cc(Nc2ccc(Cl)c(Cl)c2)n2nc(C)nc2n1`, for which the half-maximal effective concentration (EC50) was determined as 0.123 µM in the data set with Plasmodium falciparum [1] and 0.112 µM in the data set with Plasmodium falciparum [2]. Moreover, the CC50 in data set [3] was more than 100 µM.
The matching figures for `COc1ccc(Cn2c(C)nc3cc(NC(=O)Nc4ccccc4)c(C)nc32)cc1`: 0.373 µM, 0.11 µM and more than 100 µM.
On the same counts, the results for `O=[N+]([O-])c1cccc(C(O)CNCc2ccc3c(c2)OCO3)c1` (centres undefined) are 1.01 µM, 0.111 µM and more than 100 µM.
As for `C=CCN1Cc2ccc(C(=O)NCc3ccccc3)cc2N=C1c1ccc(F)cc1`, the 50% effective concentration (EC50) in the data set with Plasmodium falciparum [1] is more than 1.25 µM; in the data set on Plasmodium falciparum [2], less than 0.0143 µM. Besides, the CC50 in data set [3] was more than 12.6 µM.
Take `CCCOC(=O)C1=C(C)NC2=C(C(=O)CC(c3ccc(OC)c(OC)c3)C2)C1c1cccc(C)c1` (centres undefined): the EC50 with Plasmodium falciparum [1] is 0.0913 µM; in the data set with Plasmodium falciparum [2], 0.0359 µM. The molecule also gave a CC50 in data set [3] of 31.9 µM.
On the same counts, the results for `COc1ccc(OC)c(C2CC(=O)C3=C(C2)NC(=O)CC3c2ccc(OC)c(OC)c2)c1` (centres undefined) are 0.616 µM, 0.118 µM and more than 100 µM.
Take `O=C(NCCCCNc1ccnc2cc(Cl)ccc12)c1ccccc1Cl`: the EC50 in the data set on Plasmodium falciparum [1] is 0.761 µM; with Plasmodium falciparum [2] it was less than 0.0137 µM. In addition, the CC50 in data set [3] is more than 12 µM.
`COC1=C(Nc2cccc(C(F)(F)F)c2)C(=O)c2ccccc2C1=O`: the EC50 with Plasmodium falciparum [1] was found to be 0.263 µM; in the data set on Plasmodium falciparum [2], 0.114 µM. The molecule also returned a CC50 in data set [3] of more than 100 µM.
On the same counts, the results for `COc1cc(OC)c(N(C)C(=O)c2cn(C3CCCC3)c(=O)c3c2c2ccccc2n3C)cc1Cl` are 0.0977 µM, 0.0553 µM and 47.2 µM.
For the molecule `CCOC(=O)C1=C(C)NC2=C(C(=O)CC(c3ccc(Cl)cc3)C2)C1c1ccc(Br)cc1` (centres undefined), the values for the EC50 with Plasmodium falciparum [1] and in the data set on Plasmodium falciparum [2] were 0.378 µM and 0.116 µM, respectively. The same molecule yielded a 50% cytotoxic concentration (CC50) in data set [3] of more than 100 µM.
On the same counts, the results for `CCN(CC)CCNc1ccnc2ccc([N+](=O)[O-])cc12` are 0.0898 µM, 0.115 µM and more than 100 µM.
For `Nc1nonc1-n1nnc(-c2ccccc2)c1C(=O)NN=Cc1ccc(F)c(Br)c1`, the results for the EC50 with Plasmodium falciparum [1] and in the data set with Plasmodium falciparum [2] were 0.342 µM and 0.119 µM, respectively. The CC50 in data set [3] is more than 100 µM.
The matching figures for `CCNc1nc(NC(C)CC)nc(ON=C(C)C)n1` (centres undefined): 0.441 µM, 0.118 µM and more than 100 µM.
On the same counts, the results for `COc1ccc2c(c1)-c1c(ssc1=S)C(C)(C)N2C(=O)c1ccccc1F` are 0.652 µM, 0.118 µM and more than 100 µM.
Take `Nc1cc(C(=O)Nc2ccc(C3=NCCCN3)cc2)ccc1C(=O)Nc1ccc(C2=NCCCN2)cc1`: the figures for the EC50 with Plasmodium falciparum [1] and with Plasmodium falciparum [2] were 0.19 µM and 0.123 µM, respectively. The same molecule gave a CC50 in data set [3] of more than 100 µM.
On the same counts, the results for `O=C(NC(=CC=Cc1ccccc1)C(=O)N1CCOCC1)c1ccccc1` are 3.86 µM, 0.122 µM and more than 100 µM.
On to `Cc1noc(C)c1S(=O)(=O)N(Cc1ccccc1)CC(O)CN1CCC(NC(=O)c2ccc(F)cc2)C1` (centres undefined), for which the EC50 in the data set on Plasmodium falciparum [1] is 0.447 µM; with Plasmodium falciparum [2] it was less than 0.0121 µM. Further, in data set [3], the CC50 is more than 10 µM.
Turning to `c1ccc2cc3c(Nc4ccc(N5CCOCC5)cc4)ccnc3cc2c1`, the EC50 is 0.672 µM in the data set with Plasmodium falciparum [1] and 0.0839 µM with Plasmodium falciparum [2]. In data set [3], this molecule had a CC50 of 69.5 µM.
On the same counts, the results for `CN1CCN=C1c1ccc(NC(=O)c2ccc(C(=O)Nc3ccc(C4=NCCN4C)cc3)cc2)cc1` are 0.0911 µM, 0.012 µM and more than 10 µM.
Turning to `C[N+](C)(CCCC(=O)c1ccc(C(=O)CCC[N+](C)(C)Cc2ccccc2Cl)cc1)Cc1ccccc1Cl`, the values for the 50% effective concentration (EC50) in the data set on Plasmodium falciparum [1] and in the data set on Plasmodium falciparum [2] were 0.0213 µM and 0.113 µM, respectively. For the same molecule, the CC50 in data set [3] is more than 100 µM.
On the same counts, the results for `CC12CCC(C(=O)N(CC(O)Cn3c4ccc(Cl)cc4c4cc(Cl)ccc43)C1=O)C2(C)C` (centres undefined) are 0.118 µM, 0.12 µM and more than 100 µM.
Consider `Cc1ccn2c(NC(C)(C)CC(C)(C)C)c(-c3ccccc3OC(=O)CC(C)C)nc2c1`, for which the figures for the EC50 in the data set with Plasmodium falciparum [1] and in the data set with Plasmodium falciparum [2] were 0.772 µM and less than 0.0115 µM, respectively. In data set [3], this molecule came in with a CC50 of more than 10 µM.
The matching figures for `Cc1ccc(F)cc1NC(=O)c1cc(Cl)ccc1Nc1ccccc1`: 0.191 µM, 0.115 µM and more than 100 µM.
On the same counts, the results for `CC(=O)Nc1ccc(NC2=C(N3CCCCC3)C(=O)c3ccccc3C2=O)cc1` are 0.0528 µM, 0.111 µM and more than 100 µM.
As to `Nc1cc(C(=O)Nc2cccc(C3=NCCN3)c2)ccc1C(=O)Nc1cccc(C2=NCCN2)c1`, the figures for the EC50 in the data set with Plasmodium falciparum [1] and in the data set with Plasmodium falciparum [2] were 0.199 µM and 0.11 µM, respectively. The same molecule showed a CC50 in data set [3] of more than 100 µM.
The matching figures for `OC1=C2C(=Nc3ccccc3SC2c2ccc(Br)cc2)c2ccccc21` (centres undefined): 0.337 µM, 0.0577 µM and more than 48 µM.
On the same counts, the results for `COc1ccccc1NC(=S)N1CCN(c2ccc([N+](=O)[O-])cc2)CC1` are 0.577 µM, 0.113 µM and more than 100 µM.
On the same counts, the results for `Cc1ccc(C)c(-c2csc(Nc3ccc(C)c(C)c3)n2)c1` are 0.493 µM, 0.116 µM and more than 100 µM.
Take `COc1ccccc1NC(=O)N(Cc1ccccc1)C(C)c1nc2ccccc2c(=O)n1-c1cc(C)ccc1C` (centres undefined): the EC50 in the data set on Plasmodium falciparum [1] is 0.451 µM; with Plasmodium falciparum [2] it was less than 0.00688 µM. Besides, the CC50 in data set [3] was more than 6.06 µM.
On the same counts, the results for `CC1OC(=O)C(C(C)C)NC(=O)C(C(C)C)OC(=O)C(C(C)C)NC(=O)C(C)OC(=O)C(C(C)C)NC(=O)C(C(C)C)OC(=O)C(C(C)C)NC(=O)C(C)OC(=O)C(C(C)C)NC(=O)C(C(C)C)OC(=O)C(C(C)C)NC1=O` (centres undefined) are 0.0916 µM, 0.0117 µM and more than 10 µM.
The matching figures for `CCN1C(=S)NC2c3cc(C)ccc3OC13CCCC23` (centres undefined): 0.164 µM, 0.111 µM and more than 100 µM.
On the same counts, the results for `O=C(C=Cc1cccnc1)C12CC3CC(CC(C3)C1)C2` are 0.215 µM, 0.122 µM and more than 100 µM.
With `CCCCOc1ccc(NC2=C(N3CCCCC3)C(=O)c3ccccc3C2=O)cc1`, the EC50 amounted to 0.00986 µM with Plasmodium falciparum [1] and 0.0172 µM in the data set on Plasmodium falciparum [2]. Also, the midpoint of cytotoxicity in data set [3], the CC50, lay at 15.5 µM.
